US20080318884A1, “Methods for Altering Gene Expression and Methods of Treatment Utilizing Same” (THE UAB RESEARCH FOUNDATION, priority 2005, published 2008)

Tests used:
wild type Hdh mRNA = experiment: QSI treatment of control ES cells expressing a single wild type Hdh allele, Hdh mRNA by quantitative real time PCR; format: cell-based, mouse; conditions: QSI for six hours, high glutamine, FIG. 2C
Description: (§1) ES cell lines hemizygous for HdhQ150 were treated with an inhibitor of the glutaminyl-tRNA synthetase, QSI (5′-O-[N-(L-glutaminyl)sulfamoyl]adenosine) for six hours in the presence of high levels of glutamine. […] In this case the long CAG repeat is used to represent a rare cluster of codons. This diminishment in disease allele expression was accomplished in the presence of high amounts of glutamine (1.2 grams/ml) showing that reduction of expression can be attained by inhibition of a tRNA synthetase while providing normal amounts of the amino acid which is a substrate for the synthetase reaction. […]
(§2) Since the quantitative real time PCR (QRTPCR) assay (described below) cannot distinguish between different alleles of Hdh it is necessary that the ES cells only express a single allele. […] These engineered ES cells express only the long repeat version of Hdh and lack wild type Hdh mRNA as determined by RT-PCR across the repeat region.
(§3) Finally, a quantitative real time PCR (QRTPCR) assays has been developed for both Hprt and Hdh mRNA. […] During the PCR reaction the polymerase destroys the oligo releasing the […] to allow fluorescence. Fluorescence is measured though every cycle and the point when it increases beyond threshold is logarithmically related to the amount of starting RNA. […]

HdhQ150 mRNA = experiment: QSI treatment of ES cells hemizygous for HdhQ150, Hdh mRNA by quantitative real time PCR; format: cell-based, mouse; conditions: ES cells hemizygous for HdhQ150, QSI for six hours, high glutamine (1.2 grams/ml), FIG. 2C
Description: as §1, §2, §3

NC(=O)CC[C@H](N)C(=O)NS(=O)(=O)OC[C@H]1O[C@@H](n2cnc3c(N)ncnc32)[C@H](O)[C@@H]1O [QSI, 5′-O-[N-(L-glutaminyl)sulfamoyl]adenosine]
wild type Hdh mRNA levels (wild type Hdh mRNA): effect of QSI in lowering Hdh mRNA levels was dependent on the presence of the long CAG repeat
HdhQ150 mRNA levels (HdhQ150 mRNA): lowered by QSI treatment in a dose dependent manner
